Patent US20020173452A1, “Cytostatic-glycoconjugates having specifically cleavable linking units” (priority 2000, published 2002)
*1 amine or outer side, *2 acyl side, *3 side chain or, on linkers, in order; H or OH if unused. Where a SMILES comes first, the peptide text is derived from it. [ ]: non-standard residue; d: D form. The star is where a group is joined. X1 = CO[C@H]1[C@@H](O)[C@@H](C)OC(Oc2ccc(NC(=S)*)cc2)[C@H]1O; X2 = CC[C@@]1(O*)C(=O)OCc2c1cc1n(c2=O)Cc2cc3ccccc3nc2-1; X3 = CO[C@H]1[C@@H](O)[C@@H](C)OC(Oc2ccc(N*)cc2)[C@H]1O; CO = O=C([*:1])[*:2]

Key:
[1] = tested on: B16F10 mouse melanoma cell line; assay: Growth inhibition test (MTT) for cytotoxic properties on tumour cell lines; assay type: cell-based; conditions: B16F10 cells, growth checked after day 6, read-out: IC50 of the cytotoxic action on tumour cell lines, B16F10
Protocol: (§1) A: Growth Inhibition Test for the Determination of the Cytotoxic Properties on Various Tumour Cell Lines
(§2) The human large intestine cell lines SW 480 and HT29 (ATCC No. CCL 228 and HTB38 and the mouse melanoma cell line B16F10 (CRL 6475) were grown to confluence in Roux dishes in RPMI 1640 medium with addition of 10% FCS. They were then trypsinized and taken up in RPMI plus 10% FCS to a cell count of 50,000 cells or, for B16F10, 20,000 cells per ml. 100 μl of cell suspension/well were added to a 96 microwell plate and incubated at 37° C. for 1 day in a CO2 incubator. A further 100 μl of RPMI medium and 1 μl of DMSO were then added with the test substances. The growth was checked after day 6. For this, 25 μl of MTT solution (3-(4,5-dimethylthiazol-2-yl)-2,5-diphenyltetrazolium bromide) was added to each well at a starting concentration of 5 mg/ml of H2O. The plate was incubated at 37° C. for 5 hours in a CO2 incubator. The medium was then aspirated and 100 μl of 1-propanol/well were added. After shaking with 100 μl of H2O for 30 min, the extinction was measured at 595 nm using a Multiplate Reader (BIO-RAD 3550-UV).
(§3) The cytostatic action is indicated in Table 1 as an IC50 value, in each case for the individual cell lines.

[2] = tested on: HT29 human large intestine cell line; assay: as above; assay type: cell-based; conditions: HT29 cells, growth checked after day 6, read-out: IC50 of the cytotoxic action on tumour cell lines, HT29
Protocol: as §1, §2, §3

[3] = tested on: SW 480 human large intestine cell line; assay: as above; assay type: cell-based; conditions: SW480 cells, growth checked after day 6, read-out: IC50 of the cytotoxic action on tumour cell lines, SW480
Protocol: as §1, §2, §3

MMP-2 = biological target: T1, MMP-2 (Homo sapiens, UniProt P08253); assay: Cleavage of conjugates by MMP-2 in buffer; assay type: biochemical; conditions: after 6 h incubation with MMP-2 in buffer pH 7.5, HPLC peak areas
T1 construct: purchased Calbiochem
T1 sequence (P08253 110-660): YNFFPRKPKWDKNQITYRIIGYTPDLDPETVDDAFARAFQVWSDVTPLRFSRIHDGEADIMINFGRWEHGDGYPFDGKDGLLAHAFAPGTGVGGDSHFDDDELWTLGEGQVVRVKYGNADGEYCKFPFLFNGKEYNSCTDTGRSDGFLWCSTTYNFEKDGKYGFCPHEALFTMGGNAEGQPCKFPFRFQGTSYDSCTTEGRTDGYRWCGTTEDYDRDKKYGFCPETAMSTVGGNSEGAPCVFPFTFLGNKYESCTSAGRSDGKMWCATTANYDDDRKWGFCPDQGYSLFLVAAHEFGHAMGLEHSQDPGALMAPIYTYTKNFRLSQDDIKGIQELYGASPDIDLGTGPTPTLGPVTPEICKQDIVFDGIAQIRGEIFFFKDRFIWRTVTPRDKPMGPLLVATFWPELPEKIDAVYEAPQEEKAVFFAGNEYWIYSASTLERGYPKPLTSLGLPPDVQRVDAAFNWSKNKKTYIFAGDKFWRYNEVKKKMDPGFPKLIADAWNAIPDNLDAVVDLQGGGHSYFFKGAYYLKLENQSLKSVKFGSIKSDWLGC
Protocol: D. Cleavage of Conjugates by MMP-2 in Buffer
2.5 μl MMP-2 (Calbiochem) with a specific activity of 60μU/μl are incubated with 10 nM of the conjugates exemplified in the example series 1-25 in 1 ml of a medium consisting of 50 mM Tris-HCl pH 7.5, 0.2 M NaCl, 10 mM CaCl2*2H2O and 0,05% Brij 35. The enzyme mediated cleavage of the conjugates is detected by HPLC analysis using an RP18 (5 μM) column with 70% HClO4 /water (0.4% v/v) as eluent A and acetonitrile as eluent B (UV detection at […]). The efficiency of the cleavage is assessed by comparing the peak areas of the intact conjugate (starting material) and the cleavage product (tripeptide conjugate of camptothecin) after 6 h and 24 h incubation (cf, Table 4).

[4] = tested on: hemopoietic stem cells (bone marrow cells); assay: cells; assay type: cell-based, mice; conditions: murine bone marrow cells, recombinant murine GM-CSF, 7 days
Protocol: C. CSF-Induced Proliferation of Hemopoietic Stem Cells
Bone marrow cells are flushed out of the femur of mice. 105 cells are incubated in McCoy 5A medium (0.3% agar) together with recombinant murine GM-CSF (Genzyme; parent cell colony formation) and the substances (10^−4 to 100 μg/ml) at 37° C. and 7% CO2. 7 days later, the colonies ([…]) and clusters (17-50 cells) are counted.

[5] = tested on: subcutaneously growing melanoma xenograft model (MEXF 989); assay: In-vivo inhibition of tumour growth using a nude mouse model; design: species or system athymic nude mice (NMRI nu/nu strain); conditions: for optimal T/C in % / lethality: MEXF 989 xenograft, nude mice, i.v. or i.p., day 1-3 and day 15-17; for lethality: dead/5 mice; for inhibition of the tumor growth (in words): subcutaneously growing melanoma xenograft MEXF 989, nude mice
Description: B. In-Vivo Inhibition or Tumour Growth Using a Nude Mouse Model
In all in-vivo experiments for investigating the inhibition of tumour growth, athymic nude mice (NMRI nu/nu strain) were used. The tumour was developed by serial passage in nude mice. The human origin of the tumour was confirmed by isoenzymatic and immunohistochemical methods.
The tumour was implanted subcutaneously in both flanks of nu/nu nude mice 6 to 8 weeks old. The treatment was started, depending on the doubling time, as soon as the tumours had reached a diameter of 5-7 mm. The mice were assigned to the treatment group or the control group (5 mice per group having 8-10 assessable tumours) by randomization. The individual tumours of the control group all grew progressively.
The size of the tumours was measured in two dimensions by means of a slide gauge. The tumour volume, which correlated well with the cell count, was then used for all assessments. The volume was calculated according to the formula “length×breadth×breadth/2” ([a×b^2]/2, a and b represent two diameters arranged at right angles).
The values of the relative tumour volume (RTV) were calculated for each individual tumour by dividing the tumour size on day×with the tumour size on day 0 (at the time of randomization). The average values of the RTV were then used for the further assessment.
The inhibition of the increase of the tumour volume (tumour volume of the test group/control group, T/C, in percent) was the final measured value.
The compounds can be administered with a daily or an intermittent therapy schedule through a couple of days either by intraperitoneal, intravenious, oral or subcutaneous route.
The compounds are dissolved in water or in PEG400/water 2:1 and are administered intravenously or intraperitoneally from day 1-3 and day 15-17.

CC[C@@]1(OC(=O)[C@H](NC(=O)[C@@H](Cc2c[nH]c3ccccc23)NC(=O)[C@@H](CC(C)C)NC(=O)CNC(=O)[C@H](CC(C)C)NC(=O)[C@H]2CCCN2C(=S)Nc2ccc(OC3O[C@H](C)[C@H](O)[C@H](OC)[C@@H]3O)cc2)C(C)C)C(=O)OCc2c1cc1n(c2=O)Cc2cc3ccccc3nc2-1 (stereo partly drawn) [Example 9] (X1-[dP]LG[dL][dW][dV]-X2)
IC50 [1]: 1000 nM | IC50 [2]: 300 nM | IC50 [3]: 400 nM | MMP-2 mediated cleavage, peak area product/educt × 100 (MMP-2): 64

CC[C@@]1(OC(=O)[C@H](NC(=O)[C@@H](CC(N)=O)NC(=O)[C@@H](CC(C)C)NC(=O)CNC(=O)[C@H](CC(C)C)NC(=O)[C@H]2CCCN2C(=O)Nc2ccc(OC3O[C@H](C)[C@H](O)[C@H](OC)[C@@H]3O)cc2)C(C)C)C(=O)OCc2c1cc1n(c2=O)Cc2cc3ccccc3nc2-1 (stereo partly drawn) [Example 6] ({X3-CO}-[dP]LG[dL][dN][dV]-X2)
IC50 [1]: 300 nM | IC50 [2]: 50 nM | IC50 [3]: 60 nM | MMP-2 mediated cleavage, peak area product/educt × 100 (MMP-2): 80

CC[C@@]1(O)C(=O)OCc2c1cc1n(c2=O)Cc2cc3ccccc3nc2-1 [Camptothecin, 20(S)-Camptothecin, reference compound]
IC50 ([4]; Mus musculus, Bone marrow cell, 168 h, read-out: IC50 of inhibition of colony counts of hemopoietic stem cells): 0.00025 µg/mL

CC[C@@]1(OC(=O)[C@H](NC(=O)[C@@H](CC(N)=O)NC(=O)[C@@H](CC(C)C)NC(=O)CNC(=O)[C@H](CC(C)C)NC(=O)[C@H]2CCCN2C(=S)Nc2ccc(OC3O[C@H](C)[C@H](O)[C@H](OC)[C@@H]3O)cc2)C(C)C)C(=O)OCc2c1cc1n(c2=O)Cc2cc3ccccc3nc2-1 (stereo partly drawn) [Example 5] (X1-[dP]LG[dL][dN][dV]-X2)
IC50 [1]: 300 nM | IC50 [2]: 60 nM | IC50 [3]: 80 nM | optimal T/C in % ([5]; 6 mg/kg/day): 19.1% | lethality ([5]; 6 mg/kg/day): 1/5 | inhibition of the tumor growth (in words) [5]: effected inhibitions of the tumor growth | MMP-2 mediated cleavage, peak area product/educt × 100 (MMP-2): 166

CC[C@@]1(OC(=O)[C@H](NC(=O)[C@@H](Cc2c[nH]cn2)NC(=O)CNC(=O)[C@H](CC(C)C)NC(=O)[C@H]2CCCN2C(=S)Nc2ccc(OC3O[C@H](C)[C@H](O)[C@H](OC)[C@@H]3O)cc2)C(C)C)C(=O)OCc2c1cc1n(c2=O)Cc2cc3ccccc3nc2-1.Cl (some centres unmarked) [Example 2]
IC50 [2]: 70 nM | IC50 [3]: 150 nM | inhibition of the tumor growth (in words) [5]: effected inhibitions of the tumor growth

CC[C@@]1(OC(=O)[C@H](NC(=O)[C@@H](Cc2c[nH]cn2)NC(=O)[C@@H](CC(C)C)NC(=O)CNC(=O)[C@H](CC(C)C)NC(=O)[C@H]2CCCN2C(=S)Nc2ccc(OC3O[C@H](C)[C@H](O)[C@H](OC)[C@@H]3O)cc2)C(C)C)C(=O)OCc2c1cc1n(c2=O)Cc2cc3ccccc3nc2-1.Cl (stereo partly drawn) [Example 3] (X1-[dP]LG[dL][dH][dV]-X2)
IC50 [1]: 150 nM | IC50 [2]: 50 nM | IC50 [3]: 100 nM | optimal T/C in % ([5]; 8 mg/kg/day): 19.1% | lethality ([5]; 8 mg/kg/day): 1/5 | IC50 of inhibition of colony counts of hemopoietic stem cells [4]: 0.04 µg/mL | MMP-2 mediated cleavage, peak area product/educt × 100 (MMP-2): 609

CC[C@@]1(OC(=O)[C@H](NC(=O)[C@@H](Cc2c[nH]cn2)NC(=O)[C@@H](CC(C)C)NC(=O)CNC(=O)[C@H](CC(C)C)NC(=O)[C@H]2CCCN2C(=S)Nc2ccc(OC3O[C@H](C)[C@H](O)[C@H](OC)[C@@H]3O)cc2)C(C)C)C(=O)OCc2c1cc1n(c2=O)Cc2cc3ccccc3nc2-1.Cl (stereo partly drawn) [Example 12] (X1-[dP]LG[dL][dH][dV]-X2)
IC50 [1]: 300 nM | IC50 [2]: 100 nM | IC50 [3]: 150 nM | IC50 of inhibition of colony counts of hemopoietic stem cells [4]: 0.03 µg/mL

CC[C@@]1(OC(=O)[C@H](NC(=O)[C@@H](CC(=O)O)NC(=O)[C@@H](CC(C)C)NC(=O)CNC(=O)[C@H](CC(C)C)NC(=O)[C@H]2CCCN2C(=S)Nc2ccc(OC3O[C@H](C)[C@H](O)[C@H](OC)[C@@H]3O)cc2)C(C)C)C(=O)OCc2c1cc1n(c2=O)Cc2cc3ccccc3nc2-1 (stereo partly drawn) [Example 7] (X1-[dP]LG[dL][dD][dV]-X2)
IC50 [1]: 600 nM | IC50 [2]: 100 nM | IC50 [3]: 200 nM | MMP-2 mediated cleavage, peak area product/educt × 100 (MMP-2): 9

CC[C@@]1(OC(=O)[C@H](NC(=O)[C@@H](Cc2c[nH]cn2)NC(=O)[C@@H](CC(C)C)NC(=O)CNC(=O)[C@H](CC(C)C)NC(=O)[C@H]2CCCN2C(=O)Nc2ccc(OC3O[C@H](C)[C@H](O)[C@H](OC)[C@@H]3O)cc2)C(C)C)C(=O)OCc2c1cc1n(c2=O)Cc2cc3ccccc3nc2-1.Cl (stereo partly drawn) [Example 4] ({X3-CO}-[dP]LG[dL][dH][dV]-X2)
IC50 [1]: 150 nM | IC50 [2]: 40 nM | IC50 [3]: 50 nM | MMP-2 mediated cleavage, peak area product/educt × 100 (MMP-2): 700
